The values below come from patent US20260376299A1, “METHODS OF TREATING ACUTE MYELOID LEUKEMIA” (The Regents of the University of Colorado, A Body Corporate, priority 2022, published 2026).

In assay [1] the test system is m-LSCs. The assay is described as follows: Colony-forming unit (CFU) assay on m-LSCs. The format is cell-based, human. Particulars: for potency against m-LSCs, CdA versus BRQ and MTX / selectivity for m-LSCs over p-LSCs and normal HSPCs: CFU assay; for potency against m-LSCs, CdA versus BRQ and MTX: FIG. 6D; for selectivity for m-LSCs over p-LSCs and normal HSPCs: FIG. 6C. The procedure:
FIG. 6C and FIG. 6D show the impact of chemotherapy agents AraC, DNR, DHODH inhibitor brequinar (BRQ), and TYMS inhibitor methotrexate (MTX) on the CFU potential of m-LSCs, p-LSCs and CD34+ HSPCs. […] IP, intraperitoneal; OG, oral gavage. […] Engraft % was determined by % of hCD45+/mCD45− cells within total viable bone marrow mononuclear cells. Each dot represents a unique mouse. For PDX of AML-13, control (n=11), VEN+AZA(n=9), CdA(n=10), VEN+AZA+CdA(n=10). For PDX of AML-07, control(n=11), VEN+AZA(n=9), CdA(n=12), VEN+AZA+CdA(n=9). Box plots represent median+interquartile range. Kruskal-Wallis test was used. ns, not significant. […] Engraft % was determined by % of hCD45+/mCD45− cells within total viable spleen mononuclear cells. hCD45+ count was determined by direct quantification of hCD45+/mCD45− cells within a set volume of spleen harvest using flow cytometry. Each dot represents a unique mouse. Control (n=6), VEN+AZA(n=6), CdA(n=6), VEN+AZA+CdA(n=6). Box plots represent median+/−interquartile. Kruskal-Wallis test was used. ns, not significant.
(§1) Methotrexate (MTX), brequinar (BRQ), and cladribine (CdA) were selected based on their activities in inhibiting one-carbon metabolism enzymes DHFR and TYMS, pyrimidine synthesis enzyme DHODH, and purine-based DNA/RNA synthesis, respectively. Colony-forming unit assays were performed on m-LSCs and p-LSCs isolated from Mono, Multi-MMP, and Prim specimens, along with normal CD34+ hematopoietic stem and progenitor cells (HSPC) from two healthy donors.
Freshly sorted m-LSCs from primary AMLs or prepared CD34+ HSPCs isolated from normal mobilized peripheral samples were plated in human methylcellulose (R&D systems) at about 100 K/ml and 2 K/ml, respectively. Small molecule inhibitors were directly added into the methylcellulose at the desired final concentration at the plating. Colonies were counted 2-3 weeks after the initial plating.

The test system of assay [2] is monocytic subpopulation of engrafted AML cells. The experiment in a line: Flow analysis of residual engrafted human cells after in vivo treatment. Also noted: species or system human AML in NSG-S mice. The procedure:
as §1
NSG-S (NOD.Cg-Prkdcscid Il2rgtm1Wjl Tg(CMV-IL3,CSF2,KITLG)1Eav/MloySzJ) mice (The Jackson Laboratory) were used for xenograft studies in this study. Male or female mice ranging in age from 6 to 8 weeks were started on experiment. Littermates of the same sex were randomly assigned to experimental groups. NSG-S mice were pre-conditioned 24 hours prior to transplant with 30 mg/kg busulfan (Alfa Acsar) via intraperitoneal (IP) injection. The busulfan stock was made fresh at 25 mg/ml in 100% DMSO, then the stock was diluted 1:10 in pre-warmed saline (0.9% NaCl) down to 2.5 mg/ml right before use. The diluted busulfan solution was kept in 37 °C water bath before IP injection to prevent precipitation of busulfan due to low solubility. […]
About 2-4 weeks post initial transplant, tumor burden in the bone marrow was determined to be above 5% in sentinel mice. […]

Assay [3] relates to normal CD34+ HSPCs. The assay is described as follows: Colony-forming unit (CFU) assay on normal CD34+ HSPCs. The format is cell-based, human. As to conditions: normal CD34+ HSPCs from two healthy donors. The procedure: (§2) FIG. 6C and FIG. 6D show the impact of chemotherapy agents AraC, DNR, DHODH inhibitor brequinar (BRQ), and TYMS inhibitor methotrexate (MTX) on the CFU potential of m-LSCs, p-LSCs and CD34+ HSPCs. […] IP, intraperitoneal; OG, oral gavage. […] Engraft % was determined by % of hCD45+/mCD45− cells within total viable bone marrow mononuclear cells. Each dot represents a unique mouse. For PDX of AML-13, control (n=11), VEN+AZA(n=9), CdA(n=10), VEN+AZA+CdA(n=10). For PDX of AML-07, control(n=11), VEN+AZA(n=9), CdA(n=12), VEN+AZA+CdA(n=9). Box plots represent median+interquartile range. Kruskal-Wallis test was used. ns, not significant. […] Engraft % was determined by % of hCD45+/mCD45− cells within total viable spleen mononuclear cells. hCD45+ count was determined by direct quantification of hCD45+/mCD45− cells within a set volume of spleen harvest using flow cytometry. Each dot represents a unique mouse. Control (n=6), VEN+AZA(n=6), CdA(n=6), VEN+AZA+CdA(n=6). Box plots represent median+/−interquartile. Kruskal-Wallis test was used. ns, not significant. […]
(§3) Freshly sorted m-LSCs from primary AMLs or prepared CD34+ HSPCs isolated from normal mobilized peripheral samples were plated in human methylcellulose (R&D systems) at about 100 K/ml and 2 K/ml, respectively. […] Colonies were counted 2-3 weeks after the initial plating.

Assay [4] deals with p-LSCs. The assay is described as follows: Colony-forming unit (CFU) assay on p-LSCs. Format: cell-based, human. The procedure: as §2, §3
In assay [5] the test system is AML patients. As to conditions: cited from earlier work.

As for `Nc1nc(Cl)nc2c1ncn2[C@H]1C[C@@H](O)[C@@H](CO)O1` (stereo in doubt) [CdA, 5-(6-Amino-2-chloro-purin-9-yl)-2-(hydroxymethyl)oxolan-3-ol], the “potency against m-LSCs, CdA versus BRQ and MTX” value (“potency … CdA versus BRQ and MTX” for short) in assay [1] is “outperformed BRQ and MTX in potency against m-LSCs”. Besides, the “effect on CFU potential / specificity against m-LSCs” value in assay [1] (m-LSCs isolated from AML specimens) is “remarkable specificity against m-LSCs”. Also, in assay [2], the “clearance of the monocytic subpopulation” value was “targeted the monocytic counterpart”. Further, the figures for the “effect on CFU potential (sparing)” value in assay [3] and in assay [4] were “sparing p-LSCs as well as normal HSPC controls” and “sparing p-LSCs”, respectively. In the case of `Cc1c(-c2ccc(-c3ccccc3F)cc2)nc2ccc(F)cc2c1C(=O)O` [BRQ, 6-fluoro-2-(2′-fluoro-1,1′-biphenyl-4-yl)-3-methyl-4-quinolinecarboxylic acid], the “potency … CdA versus BRQ and MTX” value in assay [1] is “CdA also outperformed BRQ and MTX in potency against m-LSCs”. In the case of `CN(Cc1cnc2nc(N)nc(N)c2n1)c1ccc(C(=O)N[C@@H](CCC(=O)O)C(=O)O)cc1` [MTX, (28)-2-[(4-{[(2,4-Diaminopteridin-6-yl)methyl](methyl)amino}benzoyl)amino]pentanedioic acid], in assay [1], the “potency … CdA versus BRQ and MTX” value is “CdA also outperformed BRQ and MTX in potency against m-LSCs”. On to `Nc1ccn([C@@H]2O[C@H](CO)[C@@H](O)[C@@H]2O)c(=O)n1` [cytarabine, 4-amino-1-[(2R,3S,4S,5R)-3,4-dihydroxy-5-(hydroxymethyl)oxolan-2-yl]pyrimidin-2-one], for which the “selectivity for m-LSCs over p-LSCs and normal HSPCs” value in assay [1] is “selectivity was not seen”.

For `COc1cccc2c1C(=O)c1c(O)c3c(c(O)c1C2=O)C[C@@](O)(C(C)=O)C[C@@H]3O[C@H]1C[C@H](N)[C@H](O)[C@H](C)O1` [daunorubicin], the “selectivity for m-LSCs over p-LSCs and normal HSPCs” value in assay [1] was “selectivity was not seen”. For the compound `CC1(C)CCC(CN2CCN(c3ccc(C(=O)NS(=O)(=O)c4ccc(NCC5CCOCC5)c([N+](=O)[O-])c4)c(Oc4cnc5[nH]ccc5c4)c3)CC2)=C(c2ccc(Cl)cc2)C1` [venetoclax, 4-(4-{[2-(4-Chlorophenyl)-4,4-dimethyl-1-cyclohexen-1-yl]methyl}-1-piperazinyl)-N-({3-nitro-4-[(tetrahydro-2H-pyran-4-ylmethyl)amino]phenyl}sulfonyl)-2-(1H-pyrrolo[2,3-b]pyridin-5-yloxy)benzamide], in assay [5] (older previously untreated AML patients), the “responses to venetoclax in combination with backbone chemotherapy” value is on record as 60-70%. In addition, in assay [5] (venetoclax combined with chemotherapy regimens FLAG-Ida, CLIA or Clad-LDAC/AZA, recent clinical trials), the “CR/CRi and MRD negativity rates” value is “superior CR/CRi and MRD negativity rates”.
